Results: patent US10463639B2, “Compounds as modulators of a mutant CFTR protein and their use for treating diseases associated with CFTR protein malfunction” (INSTYTUT BIOCHEMII I BIOFIZYKI PAN, priority 2010, dated 2019)

Tests used:
Assay type in all cases: cell-based
ΔF508-CFTR [1] = biological target: T1, ΔF508-CFTR (Homo sapiens, UniProt P13569, DEL508-508); test: Whole cell patch-clamp recordings of cAMP-dependent chloride currents in HeLa cells; details: 24 h treatment, 1 μM (each), compared to controls
T1 construct: expressed in transfected cells; host or cells: HeLa cells, stably transfected (pTracer-based plasmid pTCF-F508del), provided by Pascale Fanen (Inserm U.468)
T1 sequence (P13569 with tags, fused parts or gaps DEL508-508): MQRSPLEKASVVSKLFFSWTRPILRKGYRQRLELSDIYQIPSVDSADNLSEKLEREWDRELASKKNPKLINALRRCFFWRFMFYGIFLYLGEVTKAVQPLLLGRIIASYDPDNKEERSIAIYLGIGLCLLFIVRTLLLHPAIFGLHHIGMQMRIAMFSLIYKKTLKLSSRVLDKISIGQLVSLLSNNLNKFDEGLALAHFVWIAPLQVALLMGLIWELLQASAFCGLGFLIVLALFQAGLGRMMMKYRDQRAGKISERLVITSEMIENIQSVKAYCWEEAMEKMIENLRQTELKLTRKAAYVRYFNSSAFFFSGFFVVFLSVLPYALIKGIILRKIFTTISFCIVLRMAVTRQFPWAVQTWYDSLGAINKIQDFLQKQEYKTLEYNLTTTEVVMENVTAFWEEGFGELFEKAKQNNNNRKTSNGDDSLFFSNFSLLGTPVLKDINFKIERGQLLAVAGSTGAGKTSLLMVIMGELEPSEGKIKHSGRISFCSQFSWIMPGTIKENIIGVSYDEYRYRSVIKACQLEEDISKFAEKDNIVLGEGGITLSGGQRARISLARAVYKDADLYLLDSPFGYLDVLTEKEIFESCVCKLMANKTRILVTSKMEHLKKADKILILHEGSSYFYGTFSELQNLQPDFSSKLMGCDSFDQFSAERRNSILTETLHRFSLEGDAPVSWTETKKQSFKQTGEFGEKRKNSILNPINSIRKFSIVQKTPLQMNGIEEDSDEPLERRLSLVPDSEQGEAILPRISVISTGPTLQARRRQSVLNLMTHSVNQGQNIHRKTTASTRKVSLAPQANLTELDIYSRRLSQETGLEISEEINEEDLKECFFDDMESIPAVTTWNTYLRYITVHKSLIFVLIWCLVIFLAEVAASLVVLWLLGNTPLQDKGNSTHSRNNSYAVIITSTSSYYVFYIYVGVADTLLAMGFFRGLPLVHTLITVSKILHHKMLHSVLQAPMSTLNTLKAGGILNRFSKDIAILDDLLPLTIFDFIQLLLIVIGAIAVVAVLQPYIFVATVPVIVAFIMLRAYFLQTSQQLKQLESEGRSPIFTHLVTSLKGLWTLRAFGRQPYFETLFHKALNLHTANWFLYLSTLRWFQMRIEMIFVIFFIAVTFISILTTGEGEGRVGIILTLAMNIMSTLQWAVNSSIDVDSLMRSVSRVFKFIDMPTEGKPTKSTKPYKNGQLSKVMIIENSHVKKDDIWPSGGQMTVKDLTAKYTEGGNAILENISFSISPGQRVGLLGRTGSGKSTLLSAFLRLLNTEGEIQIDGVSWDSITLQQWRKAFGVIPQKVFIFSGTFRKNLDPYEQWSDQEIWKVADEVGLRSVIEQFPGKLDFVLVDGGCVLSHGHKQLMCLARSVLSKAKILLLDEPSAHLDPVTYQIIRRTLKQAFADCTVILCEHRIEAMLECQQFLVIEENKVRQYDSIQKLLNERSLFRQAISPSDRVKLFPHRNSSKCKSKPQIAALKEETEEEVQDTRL
Protocol: Technique for patch-clamp recordings in the whole cell configuration has been described, such as in Hinzpeter, A. et al. Association between Hsp90 and the ClC-2 chloride channel upregulates channel function. American journal of physiology. Cell physiology 290, C45-56(2006) and Tanguy, G. et al. CSN5 binds to misfolded CFTR and promotes its degradation. Biochimica et biophysica acta 1783, 1189-99(2008). Stably transfected cells were plated in 35 mm cell culture plastic Petri dishes that were mounted on the stage of an inverted microscope. Patch-clamp experiments were performed at room temperature with an Axopatch 200A amplifier controlled by a computer via a digitdata 1440 interface (Axon Intruments, USA). Pipettes were pulled from hard glass (Kimax 51) using a Setter micropipette puller and their tips were fire-polished. Current recordings were performed using the nystatin-perforated patch clamp configuration. Nystatin stock solution (50 mg/ml) was prepared daily in DMSO. The stock solution was diluted (1:250) in the internal solution which was then sonicated during 1 minute. The internal solution contained the following (in mM): 131 NaCl, 2 MgCl2, and 10 Hepes-Na^+, pH 7.3, adjusted with NaOH. […]
Currents were recorded by application of regular voltage pulses of 60 mV amplitude during 1 second, from a holding potential of 0 mV, with an interval of 3 seconds. […]
When maximal stimulation was reached, cells were bathed with 5 μM of the specific CFTRinhibitor, CFTRinh-172, added to the CPT-cAMP solution. CFTR-currents were defined as the differences in current amplitudes recorded during maximum stimulation by CPT-cAMP and after inhibition by CFTRinh-172.
The activity of the different compounds was also evaluated in patch-clamp experiments. FIG. 6a summarizes the mean values of current amplitudes recorded at −60 mV in the different experimental conditions. CFTR-related current density (IΔF508-CFTR; pA/pF) is defined as cAMP-stimulated current minus the current recorded after inhibition by CFTR inh-172 at 5 μM, and normalized to cell capacitance. […]

ΔF508-CFTR [2] = biological target: T1, ΔF508-CFTR; test: CFTR immunolocalization by confocal immunofluorescence in HeLa cells; details: 1 μM, 24 hours
Protocol: (c) Effects of the different compounds used at 1 μM on CFTR localization. Confocal imaging showing the plasma membrane localisation of WT-CFTR and intracellular localisation of ΔF508-CFTR. The effect of drugs is illustrated in panels c to f. Bars: […]. Arrows indicate staining of CFTR at the plasma membrane.
HeLa cells grown on glass coverslips were treated as above and as described in Lipecka, J. et al., Distribution of ClC-2 chloride channel in rat and human epithelial tissues. American journal of physiology. Cell physiology 282, C805-16(2002). Cells were fixed with 4% formaldehyde and permeabilized with 0.1% Triton in PBS. Cells were blocked with 1% bovine serum albumine in PBS/Triton and incubated at 4° C. overnight with the primary antibodies, 24-1 (1:300). After washing and blocking with 5% normal goat serum, cells were incubated with the secondary antibodies. Glass coverslips were mounted using the Vectashield mounting medium (Vector laboratories) and examined by confocal laser microscopy (Zeiss, LSM 510).

ΔF508-CFTR [3] = biological target: T1, ΔF508-CFTR; test: Iodide efflux (corrector effect) in ΔF508-CFTR HeLa cells after 24 hour pre-treatment; details: ΔF508-CFTR HeLa cells; for cAMP-stimulated radiolabel iodide efflux: 24 hour pre-treatment, compound at 1 μM
Protocol: Cultures were done at 37° C. in a humidified incubator with 5% CO2.
47(4): p. […] Marivingt-Mounir, C, et al., Synthesis, SAR, crystal structure, and biological evaluation of benzoquinoliziniums as activators of wild-type and mutant cystic fibrosis transmembrane conductance regulator channels. […] 47(4): p. […] After washing, cells were incubated with 1 ml of modified Earle's salt solution. After 1 min, the medium was removed to be counted and was quickly replaced by 1 ml of the same medium. This procedure was repeated every 1 min for 8 min. The first three aliquots were used to establish a stable baseline in efflux buffer alone. Medium containing cocktail aiming to increase intracellular cAMP (10 μM forskolin and 30 μM genistein) was used for next aliquots in order to activate CFTR chloride channels. At the end of the incubation, the medium was recovered, and cells were solubilized in 1 N NaOH. The radioactivity was determined using a g-counter (LKB).
t1 and t2 are successive time points.
Data are presented as the mean±S.E. of n separate experiments.
Differences were considered statistically significant using the Student's t test when the p value was less than 0.05.
To test drug correction of ΔF508-CFTR trafficking and function we evaluated halide permeability by a macroscopic assay using a robotic cell-based methodology using the I^− efflux technique. […]

| Structure (SMILES) | CFTR-related current density IΔF508-CFTR (current amplitude at −60 mV) (ΔF508-CFTR [1]) | CFTR staining / plasma membrane localisation (ΔF508-CFTR [2]) | cAMP-stimulated radiolabel iodide efflux (ΔF508-CFTR [3]) | EC50 (ΔF508-CFTR [3]; wide range of concentrations) [µM] | EC50 (iodide efflux) (ΔF508-CFTR [3]; wide range of concentrations) | increase of the effect on iodide efflux when used at 10 μM (ΔF508-CFTR [3]; 10 μM compared with 1 μM) [fold] | stimulated efflux at 10 μM compared with WT-CFTR (ΔF508-CFTR [3]; 10 μM) |
| --- | --- | --- | --- | --- | --- | --- | --- |
| O=C(O)c1ccc(C(=O)O)c(C(=O)Nc2ccc3c(c2)Cc2ccccc2-3)c1 [compound 73100, 2-(9H-fluoren-2-ylcarbamoyl)terephthalic acid] | did not increase current amplitude | discrete punctuate staining at the plasma membrane was observed in a small fraction of cells | significant increase | 0.844 |  |  |  |
| O=c1nc(SCc2cccc([N+](=O)[O-])c2)[nH]c2nc[nH]c12 [compound 118208, 2-[(3-nitrophenyl)methylsulfanyl]-3,7-dihydropurin-6-one] | did not increase current amplitude | discrete punctuate staining at the plasma membrane was observed in a small fraction of cells | significant increase |  | could not be precisely determined |  |  |
| O=P(O)(CCP(=O)(O)c1ccccc1)c1ccccc1 [compound 407882, 2-[hydroxy(phenyl)phosphoryl]ethyl-phenylphosphinic acid] | did not increase current amplitude | clear CFTR staining at or near the plasma membrane | significant increase | 10 |  | 3 | comparable to the value observed for WT-CFTR |
